Results as given in patent US9751858B2, “3-heteroaroylamino-propionic acid derivatives and their use as pharmaceuticals” (SANOFI, priority 2011, dated 2017).

Key:
[1] = biological target: T1, Recombinant human cathepsin A (Homo sapiens, UniProt P10619); experiment: Cathepsin A inhibitory activity; type: biochemical; settings: activated recombinant human cathepsin A 833 ng/ml, Bodipy FL-labeled bradykinin 2 μM, pH 5.5, 15 min room temperature
T1 construct: Recombinant human cathepsin A (residues 29-480, with a C-terminal 10-His tag); 10-His (C); purchased R&D Systems 1049-SE
T1 sequence (P10619 29-326 limits assumed): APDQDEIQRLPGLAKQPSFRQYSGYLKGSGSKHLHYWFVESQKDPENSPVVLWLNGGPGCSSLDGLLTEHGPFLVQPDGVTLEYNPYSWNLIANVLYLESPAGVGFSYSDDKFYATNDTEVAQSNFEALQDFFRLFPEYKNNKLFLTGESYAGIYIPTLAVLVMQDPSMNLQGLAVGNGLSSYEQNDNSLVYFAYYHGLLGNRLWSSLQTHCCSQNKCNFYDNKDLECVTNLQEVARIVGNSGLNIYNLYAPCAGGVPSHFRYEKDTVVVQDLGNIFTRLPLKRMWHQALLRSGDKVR
T1 sequence (P10619 327-480 limits assumed): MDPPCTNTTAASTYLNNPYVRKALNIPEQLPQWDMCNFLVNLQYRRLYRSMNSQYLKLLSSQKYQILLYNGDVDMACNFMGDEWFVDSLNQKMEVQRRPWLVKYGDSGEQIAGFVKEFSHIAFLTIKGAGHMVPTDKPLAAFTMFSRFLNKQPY
Outline: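 Cathepsin A activated by cathepsin L (15 min, 37 °C, pH 6.0), then preincubated 15 min at room temperature with compound in 25 mM MES pH 5.5, 5 mM DTT. Bodipy FL-bradykinin cleavage ran 15 min at room temperature; substrate and product separated by microfluidic capillary electrophoresis, turnover from peak areas.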

[2] = tested on: platelet aggregation; settings: hypertensive animals; H. Ostrowska et al., J. Cardiovasc. Pharmacol. 45 (2005); cited from earlier work

SMILES	IC50 [1] [µM]	platelet aggregation [2]
COc1cccc([C@H](CC(=O)O)NC(=O)c2nc(-c3ccccc3)oc2C(F)(F)F)c1OC [Example 120, (S)-3-(2,3-Dimethoxy-phenyl)-3-[(2-phenyl-5-trifluoromethyl-oxazole-4-carbonyl)-amino]-propionic acid]	8.01	
Cc1ccccc1[C@H](CC(=O)O)NC(=O)c1nn(C)cc1NS(=O)(=O)CCc1ccccc1 [Example 121, (S)-3-{[1-Methyl-4-(2-phenyl-ethanesulfonylamino)-1H-pyrazole-3-carbonyl]-amino}-3-o-tolyl-propionic acid]	> 10	
O=C(O)C[C@H](NC(=O)c1nc(-c2ccccc2)oc1C(F)(F)F)c1ccc(Cl)cc1Cl [Example 123, (S)-3-(2,4-Dichloro-phenyl)-3-[(2-phenyl-5-trifluoromethyl-oxazole-4-carbonyl)-amino]-propionic acid]	14.4	
CC[C@@H](C)[C@@H](O)[C@H](C)C(=O)[C@H](C)/C=C(\C)C[C@H](C)[C@@H]1OC(=O)[C@H]1CC [ebelactone B]		suppresses platelet aggregation

More lines, main results first:

IC50 [1] [µM]	SMILES	platelet aggregation [2]
1.95	O=C(O)C[C@H](NC(=O)c1nc(-c2ccccc2)oc1C(F)(F)F)c1cccc(Cl)c1Cl [Example 122, (S)-3-(2,3-Dichloro-phenyl)-3-[(2-phenyl-5-trifluoromethyl-oxazole-4-carbonyl)-amino]-propionic acid]	
0.0509	O=C(O)C[C@H](NC(=O)c1nc(-c2ccccc2)n(-c2ccccc2)n1)c1cccc(Cl)c1Cl [Example 124, (S)-3-(2,3-Dichloro-phenyl)-3-[(1,5-diphenyl-1H-[1,2,4]triazole-3-carbonyl)-amino]-propionic acid]	
0.241	O=C(O)C[C@H](NC(=O)c1nc(-c2ccccc2)n(-c2ccccc2)n1)c1ccc(Cl)cc1Cl [Example 125, (S)-3-(2,4-Dichloro-phenyl)-3-[(1,5-diphenyl-1H-[1,2,4]triazole-3-carbonyl)-amino]-propionic acid]	
